Each compound was assayed against T1, human TLR8 (Homo sapiens, UniProt Q9NR97) (assay: HEK293-Blue-hTLR-8 cells assay (SEAP reporter, R848 stimulation)). Conditions: HEK293-Blue-hTLR8 cells, R848, 20 hrs; read-out: HEK/hTLR8 IC50.
T1 construct: host or cells: HEK293 (HEK-Blue)
T1 sequence (Q9NR97 27-1041): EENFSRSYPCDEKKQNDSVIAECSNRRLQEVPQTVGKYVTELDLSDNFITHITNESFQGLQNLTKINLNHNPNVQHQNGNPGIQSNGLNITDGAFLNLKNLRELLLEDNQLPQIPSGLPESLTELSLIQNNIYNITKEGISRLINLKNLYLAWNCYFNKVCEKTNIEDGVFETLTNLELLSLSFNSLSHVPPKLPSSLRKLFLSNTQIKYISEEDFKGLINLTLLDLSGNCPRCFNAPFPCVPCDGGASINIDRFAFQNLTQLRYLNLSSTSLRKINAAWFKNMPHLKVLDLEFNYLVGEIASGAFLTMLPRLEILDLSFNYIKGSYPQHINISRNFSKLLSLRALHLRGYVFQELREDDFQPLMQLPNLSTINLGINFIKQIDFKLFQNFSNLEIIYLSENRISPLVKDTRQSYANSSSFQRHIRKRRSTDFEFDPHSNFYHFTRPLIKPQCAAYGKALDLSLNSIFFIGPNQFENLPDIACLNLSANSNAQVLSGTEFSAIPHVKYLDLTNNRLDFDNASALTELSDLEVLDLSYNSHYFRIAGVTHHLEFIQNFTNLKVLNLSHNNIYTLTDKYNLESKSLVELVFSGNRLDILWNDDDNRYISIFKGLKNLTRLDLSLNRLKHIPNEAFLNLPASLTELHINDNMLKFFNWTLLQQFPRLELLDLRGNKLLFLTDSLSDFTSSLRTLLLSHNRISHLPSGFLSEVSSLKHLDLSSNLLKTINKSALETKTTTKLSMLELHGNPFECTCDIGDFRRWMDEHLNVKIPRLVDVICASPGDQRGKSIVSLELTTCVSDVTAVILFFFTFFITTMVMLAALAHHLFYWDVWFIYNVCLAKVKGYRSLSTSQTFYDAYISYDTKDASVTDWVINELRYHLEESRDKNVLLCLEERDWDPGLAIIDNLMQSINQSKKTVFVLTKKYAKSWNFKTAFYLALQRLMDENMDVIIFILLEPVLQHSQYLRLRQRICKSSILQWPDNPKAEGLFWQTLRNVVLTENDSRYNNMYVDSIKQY
Format: cell-based
Text: A stable HEK293-Blue-hTLR-8 cell line was purchased from InvivoGen (Cat.#: hkb-htlr8, San Diego, California, USA). These cells were originally designed for studying the stimulation of human TLR8 by monitoring the activation of NF-κB. A SEAP (secreted embryonic alkaline phosphatase) reporter gene was placed under the control of the IFN-β minimal promoter fused to five NF-κB and AP-1-binding sites. The SEAP was induced by activating NF-κB and AP-1 via stimulating HEK-Blue hTLR8 cells with TLR8 ligands. Therefore, the reporter expression was declined by TLR8 antagonist under the stimulation of a ligand, such as R848, for incubation of 20 hrs. The cell culture supernatant SEAP reporter activity was determined using QUANTI-Blue™ kit (Cat.#: rep-qb1, Invivogen, San Diego, Ca, USA) at a wavelength of 640 nm, a detection medium that turns purple or blue in the presence of alkaline phosphatase.
HEK293-Blue-hTLR8 cells were incubated at a density of 250,000-450,000 cells/mL in a volume of 170 µL in a 96-well plate in Dulbecco's Modified Eagle's medium (DMEM) containing 4.5 g/L glucose, 50 U/mL penicillin, […], […], 2 mM L-glutamine, 10% (v/v) heat-inactivated fetal bovine serum with addition of 20 µL test compound in a serial dilution in the presence of final DMSO at 1% and 10 µL of 60uM R848 in above DMEM, perform incubation under 37 °C in a CO2 incubator for 20 hrs. Then 20 µL of the supernatant from each well was incubated with 180 µL Quanti-blue substrate solution at 37°C for 2 hrs and the absorbance was read at 620-655 nm using a spectrophotometer. The signaling pathway that TLR8 activation leads to downstream NF-κB activation has been widely accepted, and therefore similar reporter assay was modified for evaluating TLR8 antagonist.

| SMILES | IC50 |
| --- | --- |
| C[C@@H]1CN(c2ccc(C#N)c3ncccc23)C[C@H](CN2CCN(c3ccc4c(c3)CN(CCO)C4)CC2)O1 [Example 16, 5-[(2S,6R)-2-[[4-[2-(2-hydroxyethyl)isoindolin-5-yl]piperazin-1-yl]methyl]-6-methyl-morpholin-4-yl]quinoline-8-carbonitrile] | 10 nM |
| C[C@@H]1CN(c2ccc(C#N)c3ncccc23)C[C@H](CN2CCN(c3ccc4c(n3)CNC4)CC2)O1 [Example 30, 5-[(2S,6R)-2-[[4-(6,7-dihydro-5H-pyrrolo[3,4-b]pyridin-2-yl)piperazin-1-yl]methyl]-6-methyl-morpholin-4-yl] quinoline-8-carbonitrile] | 7 nM |
| C[C@@H]1CN(c2ccc(C#N)c3ncccc23)C[C@H](CN2CC3(C2)CN(c2cnc4c(c2)CCNC4)CCO3)O1 [Example 46, 5-[(2R,6S)-2-methyl-6-[[8-(5,6,7,8-tetrahydro-1,7-naphthyridin-3-yl)-5-oxa-2,8-diazaspiro[3.5]nonan-2-yl]methyl]morpholin-4-yl]quinoline-8-carbonitrile] | 9 nM |
| C[C@@H]1CN(c2ccc(C#N)c3ncccc23)C[C@H](CN2CCN(c3cnc4c(c3)CNCC4)C(C)(C)C2)O1 [Example 56, 5-[(2S,6R)-2-[[3,3-dimethyl-4-(5,6,7,8-tetrahydro-1,6-naphthyridin-3-yl)piperazin-1-yl]methyl]-6-methyl-morpholin-4-yl]quinoline-8-carbonitrile] | 12 nM |
| COc1ccc(N2CCN(C[C@H]3CN(c4ccc(C#N)c5ncccc45)C[C@@H](C)O3)CC2)cc1 [Example R1, 5-[(2S,6R)-2-[[4-(4-methoxyphenyl)piperazin-1-yl]methyl]-6-methyl-morpholin-4-yl]quinoline-8-carbonitrile, reference compound] | 142 nM |
| C[C@@H]1CN(c2ccc(C#N)c3ncccc23)C[C@H](CN2C[C@H]3CN(c4ccc5c(n4)CCNC5)CC[C@@H]32)O1 (single isomer, unassigned) [Example 54] | 22 nM |
| C[C@@H]1CN(c2ccc(C#N)c3ncccc23)C[C@H](CN2CCN(c3ccc4c(n3)[C@H](C)NC4)CC2)O1 (single isomer, unassigned) [Example 66] | 9 nM |
| C[C@@H]1CN(c2ccc(C#N)c3ncccc23)C[C@H](CN2CCCN(c3ncc4c(n3)CCNC4)CC2)O1 [Example 39, 5-[(2R,6S)-2-methyl-6-[[4-(5,6,7,8-tetrahydropyrido[4,3-d]pyrimidin-2-yl)-1,4-diazepan-1-yl]methyl]morpholin-4-yl]quinoline-8-carbonitrile] | 12 nM |
| C[C@@H]1CN(c2ccc(C#N)c3ncccc23)C[C@H](CN2CCN(c3ccc4c(c3)CCNC4CO)CC2)O1 (stereo partly drawn) [Example 24, 5-[(2S,6R)-2-[[4-[1-(hydroxymethyl)-1,2,3,4-tetrahydroisoquinolin-6-yl]piperazin-1-yl]methyl]-6-methyl-morpholin-4-yl]quinoline-8-carbonitrile] | 22 nM |
| C[C@@H]1CN(c2ccc(C#N)c3ncccc23)C[C@H](CN2CCN(c3cnc4c(c3)CN[C@H]4C)CC2)O1 (single isomer, unassigned) [Example 67] | 20 nM |
| C[C@@H]1CN(c2ccc(C#N)c3ncccc23)C[C@H](CN2CCCN(c3nc4c(s3)CNCC4)CC2)O1 [Example 33, 5-[(2R,6S)-2-methyl-6-[[4-(4,5,6,7-tetrahydrothiazolo[5,4-c]pyridin-2-yl)-1,4-diazepan-1-yl]methyl]morpholin-4-yl]quinoline-8-carbonitrile] | 11 nM |
| C[C@@H]1CN(c2ccc(C#N)c3ncccc23)C[C@H](CN2CCN(c3ncnc4c3CNCC4)CC2)O1 [Example 61, 5-[(2R,6S)-2-methyl-6-[[4-(5,6,7,8-tetrahydropyrido[4,3-d]pyrimidin-4-yl)piperazin-1-yl]methyl]morpholin-4-yl]quinoline-8-carbonitrile] | 10 nM |
| C[C@@H]1CN(c2ccc(C#N)c3ncccc23)C[C@H](CN2CC3(CCN3c3ccc4c(n3)CCNC4)C2)O1 [Example 36, 5-[(2R,6S)-2-methyl-6-[[1-(5,6,7,8-tetrahydro-1,6-naphthyridin-2-yl)-1,6-diazaspiro[3.3]heptan-6-yl]methyl]morpholin-4-yl]quinoline-8-carbonitrile] | 43 nM |
| C[C@@H]1CN(c2ccc(C#N)c3ncccc23)C[C@H](CN2CCN(c3ccc4c(c3)CNC4)[C@@H](CO)C2)O1 [Example 4, 5-[(2S,6R)-2-[[(3R)-3-(hydroxymethyl)-4-isoindolin-5-yl-piperazin-1-yl]methyl]-6-methyl-morpholin-4-yl]quinoline-8-carbonitrile] | 27 nM |
| C[C@@H]1CN(c2ccc(C#N)c3ncccc23)C[C@H](CN2CCN(c3ccc4c(c3)CNC4)CC2)O1 [Example 7, 5-[(2S,6R)-2-[(4-isoindolin-5-ylpiperazin-1-yl)methyl]-6-methyl-morpholin-4-yl] quinoline-8-carbonitrile] | 30 nM |
| C[C@@H]1CN(c2ccc(C#N)c3ncccc23)C[C@H](CN2CCN(c3cc4c(cn3)[C@H](C)NCC4)CC2)O1 (single isomer, unassigned) [Example 72] | 5 nM |

The next lines start with the values.

| IC50 | SMILES |
| --- | --- |
| 2 nM | C[C@@H]1CN(c2ccc(C#N)c3nccnc23)C[C@H](CN2CCN(c3cc4c(cn3)CN[C@@H](C)C4)CC2)O1 (single isomer, unassigned) [Example 84] |
| < 3 nM | C[C@@H]1CN(c2ccc(C#N)c3ncsc23)C[C@H](CN2CCN(c3cnc4c(c3)CNC4)CC2)O1 [Example 8, 7-[(2S,6R)-2-[[4-(6,7-dihydro-5H-pyrrolo[3,4-b]pyridin-3-yl)piperazin-1-yl]methyl]-6-methyl-morpholin-4-yl]-1,3-benzothiazole-4-carbonitrile] |
| 2 nM | C[C@@H]1CN(c2ccc(C#N)c3nccnc23)C[C@H](CN2CCN(c3cc4c(cn3)[C@H](C)NCC4)CC2)O1 (single isomer, unassigned) [Example 85] |
| 3 nM | C[C@@H]1CN(c2ccc(C#N)c3ncccc23)C[C@H](CN2CCN(c3ccc4c(n3)CN[C@H]4C)CC2)O1 (single isomer, unassigned) [Example 63] |
| 5 nM | C[C@@H]1CN(c2ccc(C#N)c3ncccc23)C[C@H](CN2CCN(c3ncc4c(n3)CNCC4)CC2)O1 [Example 12, 5-[(2R,6S)-2-methyl-6-[[4-(5,6,7,8-tetrahydropyrido[3,4-d]pyrimidin-2-yl)piperazin-1-yl]methyl]morpholin-4-yl]quinoline-8-carbonitrile] |
| 5 nM | C[C@@H]1CN(c2ccc(C#N)c3ncccc23)C[C@H](CN2CCN(c3ccc4c(n3)CNCC4)CC2)O1 [Example 69, 5-[(2R,6S)-2-methyl-6-[[4-(5,6,7,8-tetrahydro-1,7-naphthyridin-2-yl)piperazin-1-yl]methyl]morpholin-4-yl]quinoline-8-carbonitrile] |
| 2 nM | C[C@@H]1CN(c2ccc(C#N)c3nccnc23)C[C@H](CN2CCN(c3ccc4c(n3)CN[C@@H]4C)CC2)O1 (single isomer, unassigned) [Example 79] |
| 4 nM | C[C@@H]1CN(c2ccc(C#N)c3ncccc23)C[C@H](CN2CCN(c3cnc4c(n3)CNCC4)CC2)O1 [Example 40, 5-[(2R,6S)-2-methyl-6-[[4-(5,6,7,8-tetrahydropyrido[3,4-b]pyrazin-3-yl)piperazin-1-yl]methyl]morpholin-4-yl]quinoline-8-carbonitrile] |

Reference: EP3807270B1, “NOVEL HETEROARYL HETEROCYCLYL COMPOUNDS FOR THE TREATMENT OF AUTOIMMUNE DISEASE” (F. Hoffmann-La Roche AG, priority 2018, dated 2019)
